Data from ChEMBL document CHEMBL1201862, “PubChem BioAssay data set” (2004).
Activity calls are given as the source filed them.

Legend:
[1] = biological target: T1, Tyrosine-protein phosphatase non-receptor type 7 (Homo sapiens, UniProt P35236); experiment: HePTP (PTPN7) phosphatase inhibitor potency, SAR follow-up, biochemical, set 2 (AID 449736); type: functional
T1 sequence (P35236 whole entry): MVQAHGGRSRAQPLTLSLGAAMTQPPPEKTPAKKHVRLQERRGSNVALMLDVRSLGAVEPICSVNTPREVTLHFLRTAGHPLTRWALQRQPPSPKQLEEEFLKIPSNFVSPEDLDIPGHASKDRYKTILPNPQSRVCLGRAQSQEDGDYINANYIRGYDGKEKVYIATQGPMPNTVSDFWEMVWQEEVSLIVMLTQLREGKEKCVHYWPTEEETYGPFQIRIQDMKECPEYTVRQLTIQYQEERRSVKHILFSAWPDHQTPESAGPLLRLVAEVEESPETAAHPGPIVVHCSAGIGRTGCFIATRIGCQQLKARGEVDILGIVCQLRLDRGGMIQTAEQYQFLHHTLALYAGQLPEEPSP

[2] = biological target: G-protein coupled receptor 55 (Homo sapiens, UniProt Q9Y2T6); experiment: GPR55 antagonists, SAR follow-up, counter-screen for GPR35 antagonist project, imaging, image-based (AID 2397); type: functional
Chain of G-protein coupled receptor 55 (Q9Y2T6 whole entry): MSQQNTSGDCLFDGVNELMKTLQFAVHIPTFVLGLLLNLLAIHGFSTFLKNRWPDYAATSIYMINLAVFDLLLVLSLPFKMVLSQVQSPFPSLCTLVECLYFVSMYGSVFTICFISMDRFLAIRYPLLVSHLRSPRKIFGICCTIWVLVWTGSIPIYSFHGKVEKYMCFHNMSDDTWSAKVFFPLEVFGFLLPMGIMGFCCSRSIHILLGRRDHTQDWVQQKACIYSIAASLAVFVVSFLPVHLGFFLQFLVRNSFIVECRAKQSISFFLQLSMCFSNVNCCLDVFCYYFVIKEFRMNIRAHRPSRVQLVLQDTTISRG

[3] = biological target: T2, Tyrosine-protein phosphatase non-receptor type 22 (Homo sapiens, UniProt Q9Y2R2); experiment: SAR LYP1 Fluorescent Assay using OMFP substrate for In Vitro dose response studies - Set 3. [Related pubchem assays (depositor defined):AID1779, AID1784, AID2140, AID2686]; type: functional
T2 sequence (Q9Y2R2 whole entry): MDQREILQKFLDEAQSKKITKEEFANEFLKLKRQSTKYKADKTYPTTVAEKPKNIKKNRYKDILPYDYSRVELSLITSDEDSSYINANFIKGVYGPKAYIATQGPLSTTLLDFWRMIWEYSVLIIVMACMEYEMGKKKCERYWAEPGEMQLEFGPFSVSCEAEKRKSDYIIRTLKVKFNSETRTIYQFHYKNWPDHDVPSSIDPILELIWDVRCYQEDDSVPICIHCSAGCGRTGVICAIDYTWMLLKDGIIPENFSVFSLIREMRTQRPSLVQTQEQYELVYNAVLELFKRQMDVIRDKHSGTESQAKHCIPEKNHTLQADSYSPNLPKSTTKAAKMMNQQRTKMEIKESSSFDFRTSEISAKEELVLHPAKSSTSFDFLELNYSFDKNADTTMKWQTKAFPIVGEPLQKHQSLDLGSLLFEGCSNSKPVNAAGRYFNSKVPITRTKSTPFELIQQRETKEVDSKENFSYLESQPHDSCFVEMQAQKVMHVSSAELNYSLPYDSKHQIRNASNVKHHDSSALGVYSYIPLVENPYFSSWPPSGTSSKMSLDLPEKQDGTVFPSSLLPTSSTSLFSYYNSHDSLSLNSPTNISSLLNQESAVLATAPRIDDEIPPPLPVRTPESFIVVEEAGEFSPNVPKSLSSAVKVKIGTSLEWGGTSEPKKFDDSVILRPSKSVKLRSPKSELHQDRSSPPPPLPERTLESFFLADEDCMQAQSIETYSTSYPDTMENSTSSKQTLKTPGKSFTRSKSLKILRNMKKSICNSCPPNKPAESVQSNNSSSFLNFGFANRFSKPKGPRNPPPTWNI

[4] = biological target: Tyrosine-protein phosphatase non-receptor type 12 (Homo sapiens, UniProt Q05209); experiment: SAR Selectivity Analysis of small molecule inhibitors of PEST using pCAP in a fluorescence assay. [Related pubchem assays (depositor defined):AID1779, AID1784, AID2135]; type: functional
Chain of Tyrosine-protein phosphatase non-receptor type 12 (Q05209 whole entry): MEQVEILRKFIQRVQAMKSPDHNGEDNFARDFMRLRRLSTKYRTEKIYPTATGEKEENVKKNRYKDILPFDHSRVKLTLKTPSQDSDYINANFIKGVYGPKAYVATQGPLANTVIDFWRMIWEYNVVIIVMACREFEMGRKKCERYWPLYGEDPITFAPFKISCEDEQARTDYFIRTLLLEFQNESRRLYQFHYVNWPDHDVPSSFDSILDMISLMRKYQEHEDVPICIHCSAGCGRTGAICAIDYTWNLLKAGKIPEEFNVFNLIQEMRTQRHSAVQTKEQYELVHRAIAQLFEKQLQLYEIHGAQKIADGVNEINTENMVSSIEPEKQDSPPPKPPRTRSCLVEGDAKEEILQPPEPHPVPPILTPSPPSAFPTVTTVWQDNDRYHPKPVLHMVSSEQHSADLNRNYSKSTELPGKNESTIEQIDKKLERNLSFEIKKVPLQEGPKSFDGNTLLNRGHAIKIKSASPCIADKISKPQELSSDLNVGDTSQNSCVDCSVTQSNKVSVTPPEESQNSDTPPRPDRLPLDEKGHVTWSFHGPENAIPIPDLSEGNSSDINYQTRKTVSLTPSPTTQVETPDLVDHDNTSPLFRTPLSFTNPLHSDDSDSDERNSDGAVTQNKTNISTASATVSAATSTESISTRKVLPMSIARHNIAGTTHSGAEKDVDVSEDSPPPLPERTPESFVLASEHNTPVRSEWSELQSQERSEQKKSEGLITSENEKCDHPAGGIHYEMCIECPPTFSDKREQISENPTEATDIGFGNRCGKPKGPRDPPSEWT

[5] = biological target: T2, Tyrosine-protein phosphatase non-receptor type 22; experiment: LYP (PTPN22) phosphatase inhibitor potency, SAR follow-up, biochemical, pCAP fluorogenic substrate, fluorescence, set 3 (AID 449727); type: functional
[6] = biological target: G-protein coupled receptor 35 (Homo sapiens, UniProt Q9HC97); experiment: SAR Analysis for the identification of Selective Antagonists of ERK1/2 Activity in GPR35-Overexpressing U2OS Cells. [Related pubchem assays: 2079, 2058 ]; type: functional, cell-based
Chain of G-protein coupled receptor 35 (Q9HC97 whole entry): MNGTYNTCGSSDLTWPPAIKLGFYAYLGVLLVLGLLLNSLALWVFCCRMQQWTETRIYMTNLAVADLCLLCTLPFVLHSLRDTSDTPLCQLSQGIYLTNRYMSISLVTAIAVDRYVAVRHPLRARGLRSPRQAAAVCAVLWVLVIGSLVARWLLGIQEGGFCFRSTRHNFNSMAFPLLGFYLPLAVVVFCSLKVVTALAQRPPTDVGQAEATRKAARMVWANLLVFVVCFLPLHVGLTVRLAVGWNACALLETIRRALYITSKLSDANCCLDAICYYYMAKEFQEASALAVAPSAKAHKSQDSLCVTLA

Cytochrome P450 2D6 = Cytochrome P450 2D6 (Homo sapiens, UniProt P10635);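 also: CYP2D6 member of a cytochrome P450 panel assay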
Chain of Cytochrome P450 2D6 (P10635 whole entry): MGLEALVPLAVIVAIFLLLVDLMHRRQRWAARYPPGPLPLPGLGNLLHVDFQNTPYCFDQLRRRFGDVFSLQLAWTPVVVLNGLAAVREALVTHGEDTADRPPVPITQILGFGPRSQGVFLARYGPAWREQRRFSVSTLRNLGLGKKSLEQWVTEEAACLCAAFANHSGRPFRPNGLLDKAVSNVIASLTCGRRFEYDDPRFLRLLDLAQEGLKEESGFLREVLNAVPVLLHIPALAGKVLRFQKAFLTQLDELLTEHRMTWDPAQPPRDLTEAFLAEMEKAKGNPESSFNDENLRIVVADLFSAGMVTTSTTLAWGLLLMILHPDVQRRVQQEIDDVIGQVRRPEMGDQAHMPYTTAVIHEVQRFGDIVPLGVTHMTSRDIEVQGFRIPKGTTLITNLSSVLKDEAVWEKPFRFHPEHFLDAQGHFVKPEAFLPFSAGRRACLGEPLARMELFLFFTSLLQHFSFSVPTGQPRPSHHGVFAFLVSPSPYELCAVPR

Candida albicans = experiment: reversal of fluconazole resistance in C. albicans, dose response, CaCi-2 strain, Alamar Blue, dry powder, set 3 (AID 488907); type: functional, organism-based
[7] = biological target: UDP-galactopyranose mutase (Mycobacterium tuberculosis, UniProt P9WIQ1); experiment: Inhibitors of Mycobacterium tuberculosis UDP-galactopyranose mutase (UGM) enzyme Measured in Biochemical System Using Plate Reader - 2105-02_Inhibitor_Dose_CherryPick_Activity. [Related pubchem assays (depositor defined):AID504439]
Chain of UDP-galactopyranose mutase (P9WIQ1 whole entry): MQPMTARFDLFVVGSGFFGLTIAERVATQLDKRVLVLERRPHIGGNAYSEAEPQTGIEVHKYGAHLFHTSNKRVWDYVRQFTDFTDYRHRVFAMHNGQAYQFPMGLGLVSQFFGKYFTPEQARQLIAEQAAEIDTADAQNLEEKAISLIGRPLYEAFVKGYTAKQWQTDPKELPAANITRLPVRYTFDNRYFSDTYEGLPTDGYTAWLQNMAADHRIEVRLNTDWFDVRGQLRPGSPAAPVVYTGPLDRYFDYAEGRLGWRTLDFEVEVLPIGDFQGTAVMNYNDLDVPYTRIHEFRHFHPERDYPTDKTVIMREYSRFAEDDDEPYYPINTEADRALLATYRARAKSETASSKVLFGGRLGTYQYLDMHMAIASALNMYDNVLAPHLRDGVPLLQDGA

[8] = biological target: T3, Corticotropin-releasing factor receptor 2/Corticotropin-releasing factor-binding protein (Homo sapiens, UniProt P24387+Q13324); experiment: activators of CRF receptor 2 with binding protein – uHTS hits, confirmation (AID 602473); type: functional; conditions: read-out: EC50_Mean
T3 sequence (Q13324 whole entry): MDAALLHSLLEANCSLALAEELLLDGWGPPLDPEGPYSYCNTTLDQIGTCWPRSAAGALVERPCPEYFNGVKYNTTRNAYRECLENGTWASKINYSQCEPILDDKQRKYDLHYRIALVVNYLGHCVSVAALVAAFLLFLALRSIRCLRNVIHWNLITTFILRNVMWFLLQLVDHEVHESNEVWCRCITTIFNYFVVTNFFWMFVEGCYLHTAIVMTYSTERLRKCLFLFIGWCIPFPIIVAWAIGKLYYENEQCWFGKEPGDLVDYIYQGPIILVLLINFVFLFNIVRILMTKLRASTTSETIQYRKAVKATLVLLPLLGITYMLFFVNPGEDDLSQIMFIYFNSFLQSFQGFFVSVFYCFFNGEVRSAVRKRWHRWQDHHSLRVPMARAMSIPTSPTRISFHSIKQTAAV
T3 sequence (P24387 whole entry): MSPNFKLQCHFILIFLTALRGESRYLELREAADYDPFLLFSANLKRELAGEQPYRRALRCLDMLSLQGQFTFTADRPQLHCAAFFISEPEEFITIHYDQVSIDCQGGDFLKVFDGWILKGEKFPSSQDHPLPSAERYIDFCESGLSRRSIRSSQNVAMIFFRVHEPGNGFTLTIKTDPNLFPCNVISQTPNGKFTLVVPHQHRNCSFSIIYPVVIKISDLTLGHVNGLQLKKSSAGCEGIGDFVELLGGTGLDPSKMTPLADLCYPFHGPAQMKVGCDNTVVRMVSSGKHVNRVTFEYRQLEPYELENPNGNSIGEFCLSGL

Ephrin type-A receptor 4 = Ephrin type-A receptor 4 (Mus musculus, UniProt Q03137); experiment: inhibitors of EphA4 binding to KYL peptide, primary screen, biochemical, colorimetric, mouse EphA4 (AID 689); type: functional
Chain of Ephrin type-A receptor 4 (Q03137 whole entry): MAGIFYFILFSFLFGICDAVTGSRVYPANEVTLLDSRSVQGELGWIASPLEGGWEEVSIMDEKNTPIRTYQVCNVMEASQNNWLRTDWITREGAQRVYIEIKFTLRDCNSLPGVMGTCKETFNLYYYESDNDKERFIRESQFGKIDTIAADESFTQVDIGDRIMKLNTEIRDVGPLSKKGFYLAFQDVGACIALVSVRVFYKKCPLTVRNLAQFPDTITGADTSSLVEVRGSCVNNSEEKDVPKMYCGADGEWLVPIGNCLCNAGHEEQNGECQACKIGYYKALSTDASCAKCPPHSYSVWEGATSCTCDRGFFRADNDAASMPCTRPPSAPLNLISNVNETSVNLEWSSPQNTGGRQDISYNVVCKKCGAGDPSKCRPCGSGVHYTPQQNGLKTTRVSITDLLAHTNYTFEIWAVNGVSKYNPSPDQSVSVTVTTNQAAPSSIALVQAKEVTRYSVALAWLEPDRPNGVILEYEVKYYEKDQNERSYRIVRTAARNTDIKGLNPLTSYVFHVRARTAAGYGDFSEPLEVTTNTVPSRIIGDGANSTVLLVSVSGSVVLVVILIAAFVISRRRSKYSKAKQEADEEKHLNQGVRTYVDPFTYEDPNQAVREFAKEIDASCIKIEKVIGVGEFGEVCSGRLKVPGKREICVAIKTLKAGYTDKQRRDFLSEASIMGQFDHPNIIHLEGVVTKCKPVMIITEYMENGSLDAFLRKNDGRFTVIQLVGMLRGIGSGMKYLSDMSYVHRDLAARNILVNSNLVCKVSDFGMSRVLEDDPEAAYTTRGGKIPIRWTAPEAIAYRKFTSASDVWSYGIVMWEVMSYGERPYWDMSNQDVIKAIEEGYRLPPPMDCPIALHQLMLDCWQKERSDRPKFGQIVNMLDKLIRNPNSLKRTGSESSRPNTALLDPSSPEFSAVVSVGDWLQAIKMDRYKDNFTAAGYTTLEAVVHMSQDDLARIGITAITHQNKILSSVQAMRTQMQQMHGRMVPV

ORF 73 = ORF 73 (Human herpesvirus 8, UniProt O40947); experiment: inhibitors of C-LANA binding to LBS DNA, dose response, biochemical, fluorescence polarization, cherry-picked samples (AID 504725); design: species or system Human gammaherpesvirus 8;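 also: fluorescence polarization of a labeled DNA duplex reporting LANA DNA binding; potency is for inhibitors that block LANA binding to the DNA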
Chain of ORF 73 (O40947 whole entry): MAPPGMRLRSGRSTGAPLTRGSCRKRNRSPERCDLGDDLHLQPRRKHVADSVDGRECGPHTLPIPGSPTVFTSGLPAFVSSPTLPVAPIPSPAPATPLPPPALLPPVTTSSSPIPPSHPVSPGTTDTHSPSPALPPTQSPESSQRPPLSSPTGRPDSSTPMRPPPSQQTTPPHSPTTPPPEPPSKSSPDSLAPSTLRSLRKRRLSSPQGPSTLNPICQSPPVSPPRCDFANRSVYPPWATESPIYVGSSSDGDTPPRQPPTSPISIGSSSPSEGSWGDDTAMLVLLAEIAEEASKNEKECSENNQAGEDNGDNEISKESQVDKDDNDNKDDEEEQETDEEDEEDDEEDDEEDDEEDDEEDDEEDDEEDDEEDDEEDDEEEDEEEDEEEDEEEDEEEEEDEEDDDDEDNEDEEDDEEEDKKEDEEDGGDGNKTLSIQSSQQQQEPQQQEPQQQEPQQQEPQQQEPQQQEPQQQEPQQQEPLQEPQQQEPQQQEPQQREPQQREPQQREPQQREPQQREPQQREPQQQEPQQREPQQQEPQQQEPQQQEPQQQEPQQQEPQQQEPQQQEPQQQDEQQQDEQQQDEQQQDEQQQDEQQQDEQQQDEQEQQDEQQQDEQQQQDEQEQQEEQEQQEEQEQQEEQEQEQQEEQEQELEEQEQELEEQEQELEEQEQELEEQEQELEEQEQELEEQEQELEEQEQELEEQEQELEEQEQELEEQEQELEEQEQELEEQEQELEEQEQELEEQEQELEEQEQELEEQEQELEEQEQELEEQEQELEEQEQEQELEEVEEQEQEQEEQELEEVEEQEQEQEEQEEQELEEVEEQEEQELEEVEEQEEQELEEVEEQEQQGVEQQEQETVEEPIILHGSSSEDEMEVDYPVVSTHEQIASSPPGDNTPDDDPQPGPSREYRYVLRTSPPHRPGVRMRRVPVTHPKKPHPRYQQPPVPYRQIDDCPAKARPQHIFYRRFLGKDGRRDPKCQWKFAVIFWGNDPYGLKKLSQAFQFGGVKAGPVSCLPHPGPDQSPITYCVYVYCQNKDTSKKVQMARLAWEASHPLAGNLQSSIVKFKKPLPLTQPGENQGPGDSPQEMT

HeLa = experiment: HeLa cell cytotoxicity, dose response, cytotoxicity control, 24 h, cherry-picked samples (AID 504726); type: functional, cell-based; conditions: Homo sapiens;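 also: potency for cytotoxicity as loss of luminescence signal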
[9] = biological target: T4, Mannose-6-phosphate isomerase (Homo sapiens, UniProt P34949); experiment: PMI enzyme inhibitors, confirmation, biochemical, fluorescence intensity (AID 1535)
T4 sequence (P34949 whole entry): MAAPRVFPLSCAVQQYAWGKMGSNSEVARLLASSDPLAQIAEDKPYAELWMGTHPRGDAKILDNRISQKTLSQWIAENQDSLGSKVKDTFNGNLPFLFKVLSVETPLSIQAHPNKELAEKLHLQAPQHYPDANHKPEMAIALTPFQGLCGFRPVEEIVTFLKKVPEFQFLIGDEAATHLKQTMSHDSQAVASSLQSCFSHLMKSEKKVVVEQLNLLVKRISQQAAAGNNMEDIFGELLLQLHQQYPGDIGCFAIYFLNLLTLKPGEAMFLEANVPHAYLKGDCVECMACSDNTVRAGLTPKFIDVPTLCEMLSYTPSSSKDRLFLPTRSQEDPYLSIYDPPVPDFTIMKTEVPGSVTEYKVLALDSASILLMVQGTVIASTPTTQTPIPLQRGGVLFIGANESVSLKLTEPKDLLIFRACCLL

Phosphomannomutase 2 = Phosphomannomutase 2 (Homo sapiens, UniProt O15305); experiment: Counter screen SAR assay for PMM2 inhibitors via a fluorescence intensity assay. [Related pubchem assays (depositor defined):AID1545, AID1574]
Chain of Phosphomannomutase 2 (O15305 whole entry): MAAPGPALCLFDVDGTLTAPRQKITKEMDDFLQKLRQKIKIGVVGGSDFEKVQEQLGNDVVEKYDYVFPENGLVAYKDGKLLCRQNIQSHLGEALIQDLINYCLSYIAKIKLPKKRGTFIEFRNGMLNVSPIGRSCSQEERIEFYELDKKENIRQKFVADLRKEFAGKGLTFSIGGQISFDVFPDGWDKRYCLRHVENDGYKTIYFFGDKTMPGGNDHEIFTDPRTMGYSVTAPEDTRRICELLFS

O=C(CCCN1C(=O)/C(=C/c2ccc3c(c2)OCO3)SC1=S)Nc1ccc(C(=O)O)c(O)c1
IC50 [1]: 8.75 µM (active)
IC50 [2]: > 32 µM (inactive)
IC50 [3]: > 100 µM (inactive)
IC50 [4]: 39.4 µM (active)
IC50 [5]: 73.1 µM (active)
IC50 [6]: 2.09 µM (active)

CCCS(=O)(=O)N1CCCC(C(=O)NCCCOCC)C1 (stereo not given)
AC50 (Cytochrome P450 2D6): inconclusive

COCCC(=O)N1CCN(c2ccccn2)CC1
AC50 (Candida albicans): 5.95 µM (active)

CCCCCn1nc(-c2ccccc2)c2nc3ccccc3nc21
AC50 [7]: 31.7 µM (active)
EC50 [8]: 4.97 µM (active)
IC50 (Ephrin type-A receptor 4): 6.11 µM (active)
AC50 (ORF 73): 56.5 µM (active)
AC50 (HeLa): > 350 µM (inactive)

COc1cc(N=c2ssnc2Cl)cc(OC)c1OC
IC50 [9]: 2.91 µM (active)
IC50 (Phosphomannomutase 2): > 100 µM (inactive)
